From patent US20070104716A1, “Methods for controlling pathological angiogenesis by inhibition of a6b4 integrin” (SLOAN-KETTERING INSTITUTE FOR CANCER RESEARCH, priority 2003, published 2007)

Test system: HUVECs expressing wild-type α6β4
Assay: in vitro wound closure (migration) assay on laminin-5 in response to bFGF
Format: cell-based, Human
Conditions: plated on laminin-5, bFGF, wound closure at 8 hours (FIG. 4A)
Experimental: When indicated, migrating cells were treated with the NF-kB inhibitor BAY 11-7082 ([…]) or the MAPK inhibitor PD98059 (50 μM).
To examine the effect of α6β4 signaling on endothelial cell migration, parental HUVECS and their derivatives expressing either wild-type or mutant α6β4 were plated on laminin-5 at confluency and subjected to in vitro wound assay. Expression of wild-type α6β4 increased endothelial cell migration in response to bFGF.
To examine the role of ERK and NF-OB signaling in endothelial cell migration, HUVECs expressing wild-type α6β4 were subjected to in vitro wound closure assay in the presence of the MEK inhibitor PD98059 or the NF-kB inhibitor BAYI 1-072.
HUVECs were electroporated with equimolar amounts of plasmids encoding α6 and either β4 or β4-1355T (Dans et al., 2001), deprived of growth factors for 18 hours, and then panned on plates coated with the anti-β4 mAb 3E1. Bound cells were washed with PBS and recovered by trypsin-EDTA treatment. For in vitro wound assays, equal numbers of cells expressing wild-type β4 or mutant β4-1355T were plated on dishes coated with laminin-5, grown until confluent, and starved. […] Wound closure was monitored by digital photography. […] HUVECS Invasion was quantified 72 hours later by counting the average number of capillary-like structures per microcarrier bead.

Structure (SMILES)	migration of α6β4-expressing HUVECs (wound closure) (BAY 11-7082 12.5PM)	migration of α6β4-expressing HUVECs (wound closure) (PD98059 50 μM)
Cc1ccc(S(=O)(=O)/C=C/C#N)cc1 [BAYI 1-072]	reduced the migration of α6β4-expressing HUVECs to levels similar to those displayed by control HUVECs or HUVECs expressing mutant α6β4	
COc1cccc(-c2cc(=O)c3ccccc3o2)c1N [PD98059]		reduced the migration of α6β4-expressing HUVECs to levels similar to those displayed by control HUVECs or HUVECs expressing mutant α6β4
